Columns and labels:
[1] = test system: vehicle treated cells / I-BET naive bulk leukaemia cells; experiment: Clonogenic, apoptosis and cell cycle assays, vehicle treated (I-BET naive) cells; format: cell-based, mouse
Description: (§1) Clonogenic potential was assessed through colony growth of derived cell lines plated in cytokine supplemented methylcellulose (Methocult M3434, Stemcell Technologies). […] Gr1−/CD11b- and Gr1+/CD11b+ fractions of resistant cell lines were plated in duplicate following FACS sorting at a cell dose of between 2×10^2 and 2×10^3 cells per plate. […] Cells were incubated at 37° C. and 5% CO2 for 7 to 10 days at which time colonies were counted.
(§2) Cell apoptosis was assessed using APC conjugated Annexin V (550475, BD Biosciences) and propidium iodide (PI) (P4864, Sigma-Aldrich) staining according to manufacturer's instructions.
(§3) For cell cycle analysis, cells were fixed overnight at −20° C. in 70% EtOH/PBS. Prior to flow cytometry analysis, cells were incubated at 37° C. for 30 minutes in PI staining solution (0.02 mg/mL PI, 0.05% v/v Triton-X in PBS, supplemented with DNase-free RNase A (19101, Qiagen) or incubated at room temperature for 10 minutes with 4′,6-diamidino-2-phenylindole (DAPI) staining solution (1 μg/ml DAPI, 0.05% v/v Triton-X in PBS).

[2] = test system: MLL-AF9 AML, I-BET resistant cell line; experiment: Syngeneic transplantation AML model, recipients of resistant cells, survival; format: in vivo, C57BL/6 mice; conditions: identical treatment strategy; P=0.877, n=6, log-rank; FIG. 1I
Description: (§4) Serial syngeneic transplantation studies of drug efficacy, generation of in vivo resistance and limit dilution analyses were performed with intravenous injection of between 10 to 2.5×10^6 cells per mouse obtained from bone marrow or spleen.
(§5) Syngeneic transplantation studies were performed in C57BL/6 mice (wild type or expressing Ptprc^a). All mice were 6-10 weeks old at the time of sub-lethal irradiation (300 cGy) and intravenous cell injection. […] Mice were randomly assigned treatment groups; treatment administration was not blinded. Sample sizes were determined according to the resource equation method. Differences in Kaplan-Meier survival curves were analysed using the log-rank statistic.

[3] = test system: Murine HSPCs transduced with MLL-AF9; experiment: Selection of MLL-AF9 transduced HSPCs in cytokine-supplemented methylcellulose with I-BET (IC40); format: cell-based, mouse
Description: Initial generation of immortalised parental cell lines was achieved through magnetic bead selection (Miltenyi Biotec) of c-kit positive cells, obtained from whole bone marrow of male and female C57BL/6 mice, and subsequent retroviral transduction with either an MSCV-MLL-AF9-IRES-YFP or an MSCV-MLL-ENL construct.
Individual vehicle-treated or resistant colonies were picked and transferred to liquid culture to generate clonal cell lines. […] Vehicle-treated clones were also continuously maintained in 0.1% DMSO and passaged in identical fashion. The parental cell line was continuously maintained with no exposure to vehicle or drug.

[4] = test system: MLL-AF9 AML, parental cell line; experiment: Syngeneic transplantation AML model, recipients of the parental cell line, survival; format: in vivo, C57BL/6 mice; conditions: I-BET 20-30 mg/kg IP; P<0.01, n=6, log-rank; FIG. 1H
Description: as §4, §5

[5] = test system: human AML patient derived xenograft; experiment: Patient derived xenograft (PDX) model of AML; format: in vivo, NOD SCID gamma (NSG) mice; conditions: I-BET 10 mg/kg for 2 weeks; FIG. 2G
Excerpt: Immunophenotype assessment for markers of committed differentiation was undertaken through staining with Alexa Fluor 700 anti-Gr-1 (108422, BioLegend) and Brilliant Violet 605 anti-CD11b (101237, BioLegend). Assessment of L-GMP populations was undertaken through staining with eFluor 660 anti-CD34 (50-0341-82, eBioscience), biotin lineage antibody cocktail (120-001-547, Miltenyi Biotec), PerCP/Cy5.5 anti-CD16/32 (101324, BioLegend), APC/Cy7 anti-CD117 (105826, BioLegend) and Pacific Blue anti-Ly-6A (122520, BioLegend) followed by secondary staining with V500 streptavidin (561419, BD Biosciences). Assessment of leukemic LMPP and GMP populations in patient derived xenografts was undertaken through staining with APC/Cy7 anti-mouse CD45.1 (110716, Biolegend), eFluor 450 anti-mouse Ter119 (48-5921-82, eBioscience), FITC anti-human CD45 (11-9459-42, eBioscience), BV711 anti-human CD38 (563965, BD Biosciences), PE anti-human CD90 (561970, BD Biosciences), PE-Cy5 anti-human CD123 (15-1239-41, eBioscience), PerCP-Cy5.5 anti-human CD45RA (45-0458-42), biotin anti-human CD3 (555338, BD Biosciences), biotin anti-human CD19 (555411, BD Biosciences), PE-Cy7 anti-human CD33 (333946, BD Biosciences) and APC anti-human CD34 (555824, BD Biosciences) followed by secondary staining with V500 streptavidin (561419, BD Biosciences). […]

[6] = test system: L-GMPs from I-BET naive mice; experiment: Clonogenic assay of sorted I-BET naive L-GMPs; format: cell-based, mouse; conditions: 1 μM I-BET; FIG. 2H
Description: as §1
Immunophenotype assessment for markers of committed differentiation was undertaken through staining with Alexa Fluor 700 anti-Gr-1 (108422, BioLegend) and Brilliant Violet 605 anti-CD11b (101237, BioLegend). Assessment of L-GMP populations was undertaken through staining with eFluor 660 anti-CD34 (50-0341-82, eBioscience), biotin lineage antibody cocktail (120-001-547, Miltenyi Biotec), PerCP/Cy5.5 anti-CD16/32 (101324, BioLegend), APC/Cy7 anti-CD117 (105826, BioLegend) and Pacific Blue anti-Ly-6A (122520, BioLegend) followed by secondary staining with V500 streptavidin (561419, BD Biosciences). […]

I-BET resistant cells = experiment: Clonogenic, apoptosis and cell cycle assays, I-BET resistant cells; format: cell-based, mouse; conditions: FIG. 1D-F
Description: as §1, §2, §3

I-BET resistant clones = experiment: Cell growth of I-BET resistant clones under JQ1; format: cell-based, mouse; conditions: 100 nM JQ1; FIG. 1C
Description: Following 72 hour incubation, resazurin was added to each well and plates were further incubated for 3 hours. Fluorescence was then read at 560 nm/590 nm on a Cytation 3 Imaging Reader (BioTek). Cell counts were performed using a haemocytometer. Determination of in vitro synergy in proliferation assays was undertaken according to the method of Zhao et al. (2014, Journal of molecular screening, 19: 817-821).

| Compound | clonogenic potential ([1]; 1 μM I-BET, I-BET naive bulk leukaemia cells, FIG. 1D) | I-BET mediated suppression of clonogenic capacity, induction of apoptosis and cell cycle arrest ([1]; vehicle treated cells, FIG. 1D-F) | survival [2] | IC40 [3] [nM] | survival [4] | effect on leukemic LMPP population (hCD45 expression) [5] | L-GMPs able to survive in clonogenic assay [6] | I-BET mediated suppression of clonogenic capacity, induction of apoptosis and cell cycle arrest (I-BET resistant cells) | resistance of I-BET resistant clones to JQ1 (I-BET resistant clones) |
| --- | --- | --- | --- | --- | --- | --- | --- | --- | --- |
| COc1cc2c(cc1-c1c(C)noc1C)ncc1[nH]c(=O)n([C@H](C)c3ccccn3)c12 [I-BET, I-BET 151] | virtually eradicates | exquisitely sensitive | survival advantage is abrogated | 400 | significant survival advantage | enriches for the leukemic LMPP population | 30-40% | impervious | – |
| Cc1sc2c(c1C)C(c1ccc(Cl)cc1)=N[C@@H](CC(=O)OC(C)(C)C)c1nnc(C)n1-2 [JQ1] | – | – | – | – | – | – | – | – | cross-resistance |

Reference: patent US9896663B2, “Leukaemia stem cell line, its method of production and uses thereof” (Peter MacCallum Cancer Institute, priority 2016, dated 2018)
